According to patent US20220323391A1, “COMBINATION OF A CHEMOTHERAPEUTIC AGENT AND ALPHA-LACTOGLUBULIN-OLEIC ACID COMPLEX FOR CANCER THERAPY” (HAMLET PHARMA AB, priority 2019, published 2022):
Entries after “also recorded” stand apart in the source; their conditions may differ.

System: MB49 mouse bladder carcinoma cells
Assay: murine MB49 bladder cancer model, intravesical treatment
Format: in vivo
Conditions: for Tumor growth / tumor progression (bladder weight, bladder size, tumor size) compared to sham treated mice: chemotherapeutic agent alone, 25 μg intravesical, days 3, 5, 7, 9 and 11; for Tumor growth / tumor recurrence at long-term follow up: single agent (alpha1-oleate 1.7 mM, or MMC or Epirubicin 25 μg), after 4 weeks
Description: MB49 (RRID:CVCL_7076) cells were provided by Sara Mangsbo, Uppsala University, Sweden. […] C57BL/6 female mice were bred at the Department of Laboratory Medicine, Lund University and used at ages from 7 to 12 weeks. […] On day 0, the bladder was emptied and preconditioned by intravesical instillation of 100 μl of poly-L-lysine solution (0.1 mg/ml) through a soft polyethylene catheter (Clay Adams) with an outer diameter of 0.61 mm. After 30 minutes, MB49 mouse bladder carcinoma cells (2×10^5 cells in 50 μl media) were instilled. On days 3, 5, 7, 9 and 11, mice were randomly assigned and instilled to the alpha1-oleate (1.7 mM or 8.5 mM), chemotherapeutic drugs (MMC 25 μg, epirubicin 25 μg), combination of alpha1-oleate with chemotherapeutic agent or sham PBS treatment group. The catheter was left in place for about one minute, but as the mice remained under anesthesia, the time to voiding (dwelling time) of the substance was 2-3 hours. Groups of 5-6 mice for each treatment and control were sacrificed at day 12. Follow up groups of 5-8 mice were sacrificed at week 4 and week 8. Bladders were imaged and processed for histology or RNA extraction. Two independent experiments were performed for each condition. All experiments were performed with mycoplasma-free cells.
Bladders were embedded in O.C.T. compound (VWR), and successive 5 μm sections were collected from the center of each bladder and placed on positively-charged microscope slides (Superfrost/Plus; Thermo Fisher Scientific). […] Images was captured using the AX10 microscope (Carl Zeiss). The tumor circumferences were measured for analysis of the tumor area using ImageJ software.
The effects of alpha1-oleate and Mitomycin C were investigated in the murine MB49 bladder cancer model (for study design see FIG. 19A). Bladder cancer was established by intra-vesical instillation of MB49 cells and treatment was initiated on day 3. The treatment group received alpha1-oleate (1.7 mM or 8.5 mM), MMC (0.1 mL, 25 ug/dose) or a combination of alpha1-oleate (1.7 mM or 8.5 mM) with MMC (0.1 mL, 25 ug/dose). Instillations were performed on days 3, 5, 7, 9 and 11 and sham treated mice received PBS. Bladders were harvested at sacrifice on day 12 and tumor development was quantified as bladder weight, bladder size, tumor size and pathology score (FIG. 21c-f).

SMILES | Therapeutic effect of Epirubicin alone relative to alpha1-oleate (Epirubicin 25 μg vs alpha1-oleate 1.7 mM, day 12, p=0.97) | Tumor growth / tumor progression (bladder weight, bladder size, tumor size) compared to sham treated mice (day 12) | Tumor growth / tumor recurrence at long-term follow up | Tumor growth / tumor progression (bladder weight, bladder size, tumor size) compared to sham treated mice (day 12, listed as MMC) | Tumor growth / tumor progression (bladder weight, bladder size, tumor size) compared to sham treated mice (day 12, listed as mitomycin) | Tumor growth / tumor recurrence at long-term follow up (listed as MMC)
COc1cccc2c1C(=O)c1c(O)c3c(c(O)c1C2=O)C[C@@](O)(C(=O)CO)C[C@@H]3O[C@H]1C[C@H](N)[C@@H](O)[C@H](C)O1 [Epirubicin] | comparable to that of alpha1-oleate | Tumor progression was delayed; also recorded: reduction in tumor size | Evidence of tumor recurrence; also recorded: showed an increase in tumor growth |  |  | 
CO[C@@]12[C@H](COC(N)=O)C3=C(C(=O)C(C)=C(N)C3=O)N1C[C@@H]1N[C@@H]12 [Mitomycin C] |  | Tumor progression was delayed |  | reduction in tumor size | attenuated to a similar extent | Evidence of tumor recurrence; also recorded: showed an increase in tumor growth
